Laboratory results: patent EP1283052A1, “Pharmaceutical composition containing caspase-8 and /or caspase-9 useful for overcoming glucocorticoid- and cancer therapy-induced apoptosis of tumours” (Deutsches Krebsforschungszentrum Stiftung des öffentlichen …, priority 2001, dated 2003)

Test system: caspase-8
Experiment: Fluorometric caspase-8 activity assay in CEM cells
Format: cell-based, human
Conditions: cisplatin 2 µg/ml alone, Fig. 2b
Protocol: • (a) Left: P5 an CEM cells were treated with cisplatin (1-5 µg/ml) in the absence or presence of DEX (1 µM) as indicated. Proteins were extracted and expression of CD95-L, TRAIL or TNF-α was detected by Western blot analysis. The size of the proteins in kDa is indicated. Right: HeLa and P5 were treated with CD95 agonistic antibody αAPO-1 (CD95, 1 µg/ml), recombinant TRAIL protein (TRAIL, 100 ng/ml) or recombinant TNF-α protein (TNF-α, 100 ng/ml) in the absence (white bars) or presence (black bars) of DEX (1 µM). 24 h later the percentage of apoptosis was determined by annexin-staining and FACS-analysis in untreated (CO) and stimulated cells at the time points indicated. • (b) P693 and CEM cells were treated with cisplatin (2 µg/ml) in the absence or presence of DEX as indicated. 24 and 48 h following treatment cells were lysed and caspase-8 activity was determined by a fluorescent caspase-8 assay and spectroscopy. • (c) P5 cells were stable transfected with empty vector (pcDNA3), or pcDNA3 vector encoding dominant negative FADD protein (FADD-DN). Proteins were extracted from both cell lines and expression of wildtype (WT) and FADD-DN (DN) was detected by Western blot. Left: Stable transfected P5 cells were treated with αAPO-1 (1 µg/ml) and 24 h later apoptosis was determined by staining with annexin/propidium iodide and flow-cytometry. […]

## N.N.[Cl][Pt][Cl] [cisplatin]
  activity of caspase-8: responded earlier at 24 h with increased activity at 48 h
